US20250049776A1, “AUTOPHAGY INDUCING COMPOUNDS AND USES THEREOF, IN PARTICULAR FOR A SYSTEMIC TREATMENT OF DISEASES AND CONDITIONS” (Samsara Therapeutics Inc., priority 2021, published 2025)
Read-outs that look alike come from different tables or passages of the source.

Tested on: Human osteosarcoma U20S cells
Experiment: Assay to measure lysosome and autolysosome formation (acidic vesicle formation, LysoView/LysoTracker staining)
Format: cell-based
Settings: for activation at 0.8 µM: Homo sapiens; for increase in acidic vesicle formation: relative to DMSO-treated control (10 μM)
Method: Lysosomes play a fundamental role in the autophagic pathway by fusing with autophagosomes and creating ‘autolysosomes’ in order to digest their contents. Stimulation of lysosome and autolysosome formation by a compound is indicative of a stimulation of autophagy. The ability of compounds to stimulate lysosome and autolysosome formation, and thus autophagy, in live cells was assessed via fluorescent microscopy using various fluorescent stains for labelling and tracking acidic organelles (including lysosomes and autolysosomes) such as: LysoView™ 650 (70059 and 70059-T, Biotium), LysoViewTM633 (70058 and 70058-T, Biotium) and LysoTracker™ Deep Red (L12492, ThermoFisher Scientific). The cellular phenotype was quantitatively assessed for the induction of acidic vesicle formation and compared to a non-treated control, thus providing a measure of the ability of the compound under investigation to stimulate autophagy.
Representative procedure using LysoView™633 dye or LysoTracker™ Deep Red dye: Human osteosarcoma U20S cells (40,000 cells/well) were seeded in a 24 well glass bottom plate (Sensoplate, Greiner Bio-One) and were incubated overnight in a humidified atmosphere at 37° C. and 5% CO2. Cells were grown in DMEM (Gibco) supplemented with 10% Fetal Bovine Serum (FBS) and 100 units/ml penicillin and 100 μg/ml streptomycin (Invitrogen). After the attachment period, cells were treated with different compounds of interest (at various concentrations in DMSO) or DMSO (non-treated control) in cell culture medium and were incubated for 24 hours. Compound-containing medium was removed and cells were incubated with pre-warmed cell culture medium containing 1× LysoView™ 633 (70058 and 70058-T, Biotium) or 50 nM LysoTracker™ Deep Red (L12492, ThermoFisher Scientific) for 45 minutes at 37° C. Finally, cell nuclei were stained for 10 minutes using Hoechst 33342 (1 μg/mL) and then the medium was replaced with fresh medium. The 24 well plate was then fitted into a heated stage on the microscope and cells maintained at 37° C. Images were captured using appropriate filter set for Cy5 and DAPI detection with the EVOS M7000 Microscope (ThermoFisher Scientific). The cellular phenotype was visually assessed for the induction of acidic vesicle formation relative to the non-treated control; multiple images were acquired and analyzed using ImageJ or Cell Profiler.

[1] = U2OS cells, concentration of 0.8 μM, read-out: Activity (percentage increase in acidic vesicle formation over the DMSO-treated control), Table 2
[2] = U2OS cells, concentration of 0.8 μM, read-out: Activity (percentage increase in acidic vesicle formation), Table 2a Preferred compounds

Compound | activation at 0.8 µM [1] [%] | further results
CCCN(C(=O)c1csc(-c2cnn(-c3cccc(C(F)(F)F)c3)c2)n1)[C@H]1CCNC1 [Compound 48, N-propyl-N-[(3S)-pyrrolidin-3-yl]-2-{1-[3-(trifluoromethyl)phenyl]-1H-pyrazol-4-yl}-1,3-thiazole-4-carboxamide] | 50 to 100 | activation at 0.8 µM [2]: 50 to 100%
Cc1ccccc1-n1cc(-c2nc(C(=O)N3CCC[C@@H]3CN)cs2)cn1 [Compound 86, 1-[(2R)-1-{2-[1-(2-methylphenyl)-1H-pyrazol-4-yl]-1,3-thiazole-4-carbonyl}pyrrolidin-2-yl]methanamine] | 30 to 50 | 
CCCN(C(=O)c1csc(-c2cnn(-c3ccc(OC(F)(F)F)cc3)c2)n1)[C@H]1CCNC1 [Compound 45, N-propyl-N-[(3S)-pyrrolidin-3-yl]-2-{1-[4-(trifluoromethoxy)phenyl]-1H-pyrazol-4-yl}-1,3-thiazole-4-carboxamide] | 30 to 50 | 
CCCN(C(=O)c1ccc(-c2cnn(-c3ccccc3)c2)o1)[C@@H]1CCNC1 [Compound 99, 5-(1-phenyl-1H-pyrazol-4-yl)-N-propyl-N-[(3R)-pyrrolidin-3-yl]furan-2-carboxamide] | 50 to 100 | activation at 0.8 µM [2]: 50 to 100%
CCCN(C(=O)c1ccc(-c2cnn(-c3ccccc3)c2)[nH]1)C1CCNC1 (centres unmarked) [Compound 120, 5-(1-phenyl-1H-pyrazol-4-yl)-N-propyl-N-(pyrrolidin-3-yl)-1H-pyrrole-2-carboxamide] | 50 to 100 | activation at 0.8 µM [2]: 50 to 100%
O=C(NCC1CCNCC1)c1cc(-c2cnn(-c3ccccc3)c2)cs1 [Compound 111, 4-(1-phenyl-1H-pyrazol-4-yl)-N-[(piperidin-4-yl)methyl]thiophene-2-carboxamide] | 30 to 50 | 
CCCN(C(=O)c1cc(-c2cnn(-c3ccccc3)c2)cs1)[C@H]1CCNC1 [Compound 59, 4-(1-phenyl-1H-pyrazol-4-yl)-N-propyl-N-[(3S)-pyrrolidin-3-yl]thiophene-2-carboxamide] | 10 to 30 | 
CC(C)N(C(=O)c1csc(-c2cnn(-c3ccccc3C(F)(F)F)c2)n1)C1CCNCC1 [Compound 47, N-(piperidin-4-yl)-N-(propan-2-yl)-2-{1-[2-(trifluoromethyl)phenyl]-1H-pyrazol-4-yl}-1,3-thiazole-4-carboxamide] | 30 to 50 | 
CC(C)N(C(=O)c1csc(-c2cnn(-c3cccnn3)c2)n1)C1CCNCC1 [Compound 323, N-(piperidin-4-yl)-N-(propan-2-yl)-2-[1-(pyridazin-3-yl)-1H-pyrazol-4-yl]-1,3-thiazole-4-carboxamide] | 30 to 50 | increase in acidic vesicle formation (U20S cells): only a slight increase
CCCN(C(=O)c1csc(-c2cnn(-c3ccc(F)cc3)c2)n1)[C@H]1CCNC1 [Compound 58, 2-[1-(4-fluorophenyl)-1H-pyrazol-4-yl]-N-propyl-N-[(3S)-pyrrolidin-3-yl]-1,3-thiazole-4-carboxamide] | 10 to 30 | 
CC(C)N(C(=O)c1csc(-c2cnn(-c3ccccc3)c2)n1)[C@H]1[C@@H]2CNC[C@@H]21 [Compound 318, N-[(1R,5S,6S)-3-azabicyclo[3.1.0]hexan-6-yl]-2-(1-phenyl-1H-pyrazol-4-yl)-N-(propan-2-yl)-1,3-thiazole-4-carboxamide] | > 100 | 
CCCN(C(=O)c1csc(-c2cnn(-c3ccc(F)cc3)c2)n1)[C@@H]1CCNC1 [Compound 54, 2-[1-(4-fluorophenyl)-1H-pyrazol-4-yl]-N-propyl-N-[(3R)-pyrrolidin-3-yl]-1,3-thiazole-4-carboxamide] | 10 to 30 | 
O=C(NCC1CCNC1)c1csc(-c2cnn(-c3ccccc3)c2)n1 (centres unmarked) [Compound 179, 2-(1-phenyl-1H-pyrazol-4-yl)-N-[(pyrrolidin-3-yl)methyl]-1,3-thiazole-4-carboxamide] | 30 to 50 | 
O=C(NC1C[C@@H]2C[C@H]1CN2)c1csc(-c2cnn(-c3ccccc3)c2)n1 (stereo partly drawn) [Compound 327, N-[(1S,4S)-2-azabicyclo[2.2.1]heptan-5-yl]-2-(1-phenyl-1H-pyrazol-4-yl)-1,3-thiazole-4-carboxamide] | 30 to 50 | 
CCCN(C(=O)c1csc(-c2cnn(-c3cccc(C)c3)c2)n1)[C@H]1CCNC1 [Compound 28, 2-[1-(3-methylphenyl)-1H-pyrazol-4-yl]-N-propyl-N-[(3S)-pyrrolidin-3-yl]-1,3-thiazole-4-carboxamide] | 10 to 30 | 
CCCN(C(=O)c1csc(-c2cnn(-c3ccccc3C(F)(F)F)c2)n1)[C@@H]1CCNC1 [Compound 83, N-propyl-N-[(3R)-pyrrolidin-3-yl]-2-{1-[2-(trifluoromethyl)phenyl]-1H-pyrazol-4-yl}-1,3-thiazole-4-carboxamide] | 30 to 50 | 
CCCN(C(=O)c1ccc(-c2cnn(-c3ccccc3)c2)[nH]1)[C@H]1CCNC1 [Compound 93, 5-(1-phenyl-1H-pyrazol-4-yl)-N-propyl-N-[(3S)-pyrrolidin-3-yl]-1H-pyrrole-2-carboxamide] | > 100 | activation at 0.8 µM [2]: 50 to 100%; Activity (percentage increase in acidic vesicle formation), Table 2b More preferred compounds (U2OS cells, concentration of 0.8 μM): ++++ (a percentage increase in acidic vesicle of greater than 100% over the DMSO-treated control)
CCCN(C(=O)c1csc(-c2cnn(-c3ccccn3)c2)n1)[C@H]1CCNC1 [Compound 43, N-propyl-2-[1-(pyridin-2-yl)-1H-pyrazol-4-yl]-N-[(3S)-pyrrolidin-3-yl]-1,3-thiazole-4-carboxamide] | 10 to 30 | 
CCCN(C(=O)c1csc(-c2cnn(-c3cccc(C)c3)c2)n1)[C@@H]1CCNC1 [Compound 29, 2-[1-(3-methylphenyl)-1H-pyrazol-4-yl]-N-propyl-N-[(3R)-pyrrolidin-3-yl]-1,3-thiazole-4-carboxamide] | 30 to 50 | 
CCCN(C(=O)c1ccc(-c2cnn(-c3ccccc3)c2)o1)C1CCNC1 (centres unmarked) [Compound 140, 5-(1-phenyl-1H-pyrazol-4-yl)-N-propyl-N-(pyrrolidin-3-yl)furan-2-carboxamide] | 10 to 30 | 
Cc1ccc(-n2cc(-c3nc(C(=O)N(C(C)C)C4CCNCC4)cs3)cn2)cc1 [Compound 57, 2-[1-(4-methylphenyl)-1H-pyrazol-4-yl]-N-(piperidin-4-yl)-N-(propan-2-yl)-1,3-thiazole-4-carboxamide] | 30 to 50 | 
O=C(NC[C@@H]1CNCCO1)c1csc(-c2cnn(-c3ccccc3)c2)n1 [Compound 107, N-{[(2S)-morpholin-2-yl]methyl}-2-(1-phenyl-1H-pyrazol-4-yl)-1,3-thiazole-4-carboxamide] | 10 to 30 | 
CC(C)N(C(=O)c1csc(-c2cnn(-c3ccncc3)c2)n1)C1CCNCC1 [Compound 322, N-(piperidin-4-yl)-N-(propan-2-yl)-2-[1-(pyridin-4-yl)-1H-pyrazol-4-yl]-1,3-thiazole-4-carboxamide] |  | acidic vesicle formation relative to a DMSO-treated control (U20S cells, concentration of 10 μM, 24 hours): only a slight increase; increase in acidic vesicle formation (U20S cells): only a slight increase
CCCN(C(=O)c1csc(-c2cnn(-c3cccc(C(F)(F)F)c3)c2)n1)[C@@H]1CCNC1 [Compound 49, N-propyl-N-[(3R)-pyrrolidin-3-yl]-2-{1-[3-(trifluoromethyl)phenyl]-1H-pyrazol-4-yl}-1,3-thiazole-4-carboxamide] | 30 to 50 | 
CC(C)N(C(=O)c1csc(-c2cnn(-c3ccccc3F)c2)n1)C1CCNCC1 [Compound 95, 2-[1-(2-fluorophenyl)-1H-pyrazol-4-yl]-N-(piperidin-4-yl)-N-(propan-2-yl)-1,3-thiazole-4-carboxamide] | 50 to 100 | activation at 0.8 µM [2]: 50 to 100%
CC(C)N(C(=O)c1csc(-c2cnn(-c3cccnc3)c2)n1)C1CCNCC1 [Compound 321, N-(piperidin-4-yl)-N-(propan-2-yl)-2-[1-(pyridin-3-yl)-1H-pyrazol-4-yl]-1,3-thiazole-4-carboxamide] | 30 to 50 | increase in acidic vesicle formation (U20S cells): only a slight increase
O=C(c1csc(-c2cnn(-c3ccccc3)c2)n1)N1C[C@H]2C[C@@H]1CN2 [Compound 326, (1R,4R)-2-[2-(1-phenyl-1H-pyrazol-4-yl)-1,3-thiazole-4-carbonyl]-2,5-diazabicyclo[2.2.1]heptane] | 50 to 100 | 
CCCN(C(=O)c1ccc(-c2cnn(-c3ccccc3)c2)o1)[C@H]1CCNC1 [Compound 98, 5-(1-phenyl-1H-pyrazol-4-yl)-N-propyl-N-[(3S)-pyrrolidin-3-yl]furan-2-carboxamide] | 50 to 100 | activation at 0.8 µM [2]: 50 to 100%
